Assay results reported in patent US20240368122A1, “JAK2 INHIBITORS AND METHODS OF USE THEREOF” (RELAY THERAPEUTICS, INC., priority 2021, published 2024).
Read-outs that look alike come from different tables or passages of the source.

Key:
[1] = molecular target: T1, JAK2 JH2 WT (V536-D812) [W659A, W777A, F794H solubilizing mutations] (Homo sapiens, UniProt O60674, F794H/W659A/W777A); experiment: Surface Plasmon Resonance (SPR) binding assay, JAK2 JH2 domain
T1 construct: **JAK2 JH2 WT (V536-D812) [W659A, W777A, F794H solubilizing mutations]; C-thrombin-avi-His6; thrombin cleavage site (C); His6 (C); purchased Biortus
T1 sequence (O60674 536-812 W659A/W777A/F794H): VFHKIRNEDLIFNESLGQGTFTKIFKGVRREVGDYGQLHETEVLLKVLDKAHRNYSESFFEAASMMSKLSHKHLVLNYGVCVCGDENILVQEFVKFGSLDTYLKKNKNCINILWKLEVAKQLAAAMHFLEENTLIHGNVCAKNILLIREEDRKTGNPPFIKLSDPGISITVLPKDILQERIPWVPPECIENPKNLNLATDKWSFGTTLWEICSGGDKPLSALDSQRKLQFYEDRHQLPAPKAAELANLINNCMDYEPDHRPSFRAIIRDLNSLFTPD
Procedure, shortened: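 Kinetics came from 1:1 fits of single-cycle runs at 20 °C: four 3-fold dilutions from 5 uM for JH1 or 500 nM for JH2, 60 s association, and 300 s or 1200 s dissociation respectively. Protein was freshly captured per compound in the presence of 10 uM stabilizer compound, with running buffer of pH 7.5 HEPES/NaCl/glycerol/DTT plus 2% DMSO.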

[2] = tested on: TF1 JAK2 V617F STAT3 reporter; experiment: Cellular TF1 STAT3 assay (luciferase reporter), JAK2 V617F; type: cell-based; settings: read-out: Cell PD-TF1 JAK2 V617F STAT3 (IC50)
Procedure, shortened: (§1)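 TF1 V617F JAK2 reporter cells, 10k/well; 10-pt 1:3 dose response from 10 mM 1000× DMSO stock; 18-20 h, 37 °C, 5% CO2; ONE-glo, 10 min RT; luminescence. Triplicate plates, DMSO vehicle.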

[3] = tested on: TF1 JAK2 V617F STAT5 reporter; experiment: Cellular TF1 STAT5 assay (luciferase reporter), JAK2 V617F; type: cell-based; settings: read-out: Cell PD TF1 V617F STAT5 (IC50)
Procedure, shortened: as §1

[4] = Homo sapiens, TF-1, TF1 cells, JAK2 V617F

SMILES	Kd [1] [nM]	IC50 [2, 4] [nM]	IC50 [3, 4] [nM]	Kd ([1]; SPR, JAK2 JH2 domain) [nM]	IC50 ([2]; TF1 JAK2 V617F) [nM]	IC50 ([3]; TF1 JAK2 V617F) [nM]
CNC(=O)c1nnc(NC(=O)OC2CC2)cc1Nc1cccc(-c2cnn(C3CN(Cc4cccc(C#N)n4)C3)c2)c1OC [Compound 364]	0.01 to 10	50 to 500	50 to 500	–	–	–
CNC(=O)c1nnc(NC(=O)C2CC2)cc1Nc1cccc(-c2cnc(C(=O)N(CCOC)Cc3cccn(C)c3=O)c(F)c2)c1OC [Compound 21]	–	–	–	0.01 to 10	500 to 5000	500 to 5000
CNC(=O)c1nnc(NC(=O)C2CC2)cc1Nc1cccc(-c2cn([C@@H]3CN(Cc4cccc(C#N)n4)[C@H]3C)nn2)c1OC (racemic) [Compound 214]	0.01 to 10	50 to 500	50 to 500	–	–	–
CNC(=O)c1nnc(NC(=O)C2CC2)cc1Nc1cccc(-c2cnn(C3CN(Cc4cccc(C#CCN)n4)C3)c2)c1OC [Compound 265]	0.01 to 10	500 to 5000	500 to 5000	–	–	–
CNC(=O)c1nnc(NC(=O)C2CC2)cc1Nc1cccc(-c2ccn(C3CN(Cc4cccc(C(F)F)n4)C3)n2)c1OC [Compound 331]	0.01 to 10	500 to 5000	500 to 5000	–	–	–
CNC(=O)c1nnc(NC(=O)C2CC2)cc1Nc1cccc(-c2cc(C3CN(Cc4cccc(C#N)n4)C3)n(C)n2)c1OC [Compound 202]	50 to 500	5000 to 100000	5000 to 100000	–	–	–
CNC(=O)c1nnc(NC(=O)C2CC2)cc1Nc1cccc(-c2cnn(C3CN(Cc4cccc(CO)n4)C3)c2)c1OC [Compound 228]	0.01 to 10	50 to 500	50 to 500	–	–	–
CNC(=O)c1nnc(NC(=O)C2CC2)cc1Nc1cccc(-c2cnn(C3CN(Cc4cccc([N+](=O)[O-])n4)C3)c2)c1OC [Compound 294]	0.01 to 10	50 to 500	50 to 500	–	–	–
CNC(=O)c1nnc(NC(=O)OC2CC2)cc1Nc1cccc(-c2cnn(C3CN(Cc4ccccn4)C3)c2)c1OC [Compound 342]	0.01 to 10	500 to 5000	500 to 5000	–	–	–
CNC(=O)c1nnc(NC(=O)C2CC2)cc1Nc1cccc(-c2ccc(C3CN(Cc4cccc(C#N)n4)C3)nc2)c1OC [Compound 266]	0.01 to 10	500 to 5000	500 to 5000	–	–	–
CNC(=O)c1nnc(NC(=O)C2CC2)cc1Nc1cccc(-c2cnn(C3CN(Cc4cccc5ncnn45)C3)c2)c1OC [Compound 248]	0.01 to 10	50 to 500	50 to 500	–	–	–
CNC(=O)c1nnc(NC(=O)C2CC2)cc1Nc1cccc(-c2cnn(C3CN(Cc4cccc(C=O)n4)C3)c2)c1OC [Compound 324]	0.01 to 10	50 to 500	50 to 500	–	–	–
CNC(=O)c1nnc(NC(=O)C2CC2)cc1Nc1cccc(-c2cnn(C3CN(Cc4cccc(C(F)(F)F)n4)C3)c2)c1OC [Compound 200]	0.01 to 10	50 to 500	50 to 500	–	–	–
CNC(=O)c1nnc(NC(=O)C2CC2)cc1Nc1cccc(-c2cnn(C3CN(Cc4nccc(OC)n4)C3)c2)c1OC [Compound 78]	–	–	–	0.01 to 10	500 to 5000	500 to 5000
CNC(=O)c1nnc(NC(=O)C2CC2)cc1Nc1cccc(C(=O)N[C@@H](C)C2CN(Cc3ccccn3)C2)c1OC (single isomer, unassigned) [Compound 245]	50 to 500	5000 to 100000	5000 to 100000	–	–	–
CNC(=O)c1nnc(NC(=O)C2CC2)cc1Nc1cccc(-c2cnn(C3CN(Cc4cccc(C(=O)N5CCCC5)n4)C3)c2)c1OC [Compound 356]	0.01 to 10	10 to 50	10 to 50	–	–	–
[2H]C([2H])([2H])NC(=O)c1nnc(NC(=O)C2CC2)cc1Nc1cccc(-c2cnn(C3CN(Cc4ccccn4)C3)c2)c1OC [Compound 105]	–	–	–	0.01 to 10	50 to 500	50 to 500
CNC(=O)c1nnc(NC(=O)C2CC2)cc1Nc1cccc(-c2cnn(C3CN(Cc4cccc(C#N)n4)C3)c2)c1 [Compound 232]	10 to 50	5000 to 100000	5000 to 100000	–	–	–
CNC(=O)c1nnc(NC(=O)C2CC2)cc1Nc1cccc(-c2cn([C@H]3CN(Cc4cccc(Cl)n4)[C@@H]3C)nn2)c1OC (stereo in doubt) [Compound 236]	0.01 to 10	50 to 500	50 to 500	–	–	–

Second part, the compound after the results:

Kd [1] [nM]	IC50 [2, 4] [nM]	IC50 [3, 4] [nM]	Kd ([1]; SPR, JAK2 JH2 domain) [nM]	IC50 ([2]; TF1 JAK2 V617F) [nM]	IC50 ([3]; TF1 JAK2 V617F) [nM]	SMILES
–	–	–	10 to 50	500 to 5000	5000 to 100000	CNC(=O)c1nnc(NC(=O)C2CC2)cc1Nc1cccc(-c2ccc(C(=O)N(C)C[C@@H]3Cc4ccccc4CO3)nc2)c1OC (single isomer, unassigned) [Compound 138]
–	–	–	0.01 to 10	50 to 500	50 to 500	CNC(=O)c1nnc(NC(=O)C2CC2)cc1Nc1cccc(-c2cnc(C(=O)N(C)Cc3cccn(C)c3=O)c(F)c2)c1OC [Compound 29]
–	–	–	0.01 to 10	500 to 5000	500 to 5000	[2H]C([2H])([2H])NC(=O)c1nnc(NC(=O)C2CC2)cc1Nc1cccc(-c2cnc(C(=O)N(Cc3ccn(C)n3)C([2H])([2H])[2H])nc2)c1OC [Compound 63]
–	–	–	0.01 to 10	50 to 500	50 to 500	CNC(=O)c1nnc(NC(=O)C2CC2)cc1Nc1cccc(-c2ccc(C(=O)N(C)CC3=NO[C@@H]4CCCC[C@H]34)nc2)c1OC (single isomer, unassigned) [Compound 193]
–	–	–	10 to 50	500 to 5000	500 to 5000	CNC(=O)c1nnc(NC(=O)C2CC2)cc1Nc1cccc(-c2ccc(C(=O)N(C)Cc3ccccc3C(C)C)nc2)c1OC [Compound 81]
–	–	–	0.01 to 10	50 to 500	50 to 500	CNC(=O)c1nnc(NC(=O)C2CC2)cc1Nc1cccc(-c2ccc(C(=O)N(C)Cc3cn(C)nc3C)nc2)c1OC [Compound 101]
0.01 to 10	5000 to 100000	5000 to 100000	–	–	–	CNC(=O)c1nnc(NC(=O)C2CC2)cc1Nc1cccc(-c2cnn(C3CN(Cc4cccc(C(=O)O)n4)C3)c2)c1OC [Compound 312]
–	–	–	10 to 50	5000 to 100000	5000 to 100000	CNC(=O)c1nnc(NC(=O)C2CC2)cc1Nc1cccc(-c2ccc(C(=O)N(C)[C@H](C)c3cnn(C)c3)nc2)c1OC (single isomer, unassigned) [Compound 115]
–	–	–	0.01 to 10	500 to 5000	5000 to 100000	CNC(=O)c1nnc(NC(=O)C2CC2)cc1Nc1cccc(-c2cnn(C3CN([C@H](C)c4ccccn4)C3)c2)c1OC (single isomer, unassigned) [Compound 163]
–	–	–	0.01 to 10	500 to 5000	500 to 5000	CNC(=O)c1nnc(NC(=O)C2CC2)cc1Nc1cccc(-c2ccc(C(=O)N(C)Cc3cnc4ccc(Cl)cn34)nc2)c1OC [Compound 31]
50 to 500	5000 to 100000	500 to 5000	–	–	–	CNC(=O)c1nnc(NC(=O)C2CC2)cc1Nc1cccc(-c2ccc(C3CN(Cc4ccc(Cl)cn4)C3)nc2)c1OC [Compound 388]
–	–	–	10 to 50	500 to 5000	500 to 5000	CNC(=O)c1nnc(NC(=O)C2CC2)cc1Nc1cccc(-c2ccc(C(=O)N(C)Cc3ccc(F)cc3)nc2)c1OC [Compound 113]
0.01 to 10	50 to 500	50 to 500	–	–	–	CNC(=O)c1nnc(NC(=O)C2CC2)cc1Nc1cccc(-c2ccc(C(=O)N(C)Cc3cn(C)nc3C3CC3)nc2)c1OC [Compound 252]
–	–	–	0.01 to 10	500 to 5000	500 to 5000	CNC(=O)c1nnc(NC(=O)C2CC2)cc1Nc1cccc(-c2cnc(C(=O)N(C)Cc3ccn(C)n3)nc2)c1OC [Compound 49]
–	–	–	0.01 to 10	50 to 500	50 to 500	CNC(=O)c1nnc(NC(=O)C2CC2)cc1Nc1cccc(-c2ccc(C(=O)N(C)Cc3cc(S(C)(=O)=O)ccn3)cc2)c1OC [Compound 73]
0.01 to 10	50 to 500	50 to 500	–	–	–	CNC(=O)c1nnc(NC(=O)C2CC2)cc1Nc1ccc(Cl)c(-c2ccc(C(=O)N(C)Cc3cc(C#N)n(C)n3)nc2)c1OC [Compound 205]
–	–	–	0.01 to 10	500 to 5000	500 to 5000	CNC(=O)c1nnc(NC(=O)C2CC2)cc1Nc1cccc(-c2ccc(C(=O)N(C)Cc3cc(C#N)ccn3)c(F)c2)c1OC [Compound 131]
–	–	–	0.01 to 10	500 to 5000	500 to 5000	CNC(=O)c1nnc(NC(=O)C2CC2)cc1Nc1cccc(-c2ccc(C(=O)N(C)Cc3nc(C)no3)nc2)c1OC [Compound 102]
0.01 to 10	500 to 5000	500 to 5000	–	–	–	CNC(=O)c1nnc(NC(=O)C2CC2)cc1Nc1cccc(-c2cnn(C3CN(C(=O)c4ccccn4)C3)c2)c1OC [Compound 229]
–	–	–	10 to 50	500 to 5000	500 to 5000	CNC(=O)c1nnc(NC(=O)C2CC2)cc1Nc1cccc(-c2ccc(C(=O)N(C)Cc3ccc(N(C)C)nc3)nc2)c1OC [Compound 93]
0.01 to 10	500 to 5000	50 to 500	–	–	–	COc1c(Nc2cc(NC(=O)C3CC3)nnc2-c2ncc[nH]2)cccc1-c1ccc(C(=O)N(C)Cc2cn(C)nc2C)nc1 [Compound 363]
–	–	–	0.01 to 10	500 to 5000	500 to 5000	CNC(=O)c1nnc(NC(=O)C2CC2)cc1Nc1cccc(-c2ccc(C(=O)N(C)Cc3cc(C#N)ccn3)nc2OC)c1OC [Compound 20]
